Source: paper PMC7080406 (eLife, 2020)
Values joined by “and” are separate entries in the source; they are usually repeats but may differ in a detail not shown here. Equal values may be shown once. “Also recorded” adds a separate entry of the source. Read-outs that look alike come from different tables or passages of the source.

Legend:
MT2 [1] = molecular target: T1, MT2 (Homo sapiens, UniProt P49286); assay: [3H]melatonin competition radioligand binding, MT2 membranes; parameters: expressed in transfected cells; host or cells: HEK293T (ATCC CRL-11268), transient transfection; conditions: read-out: MT2 pKi ± SEM (converted)
T1 sequence (P49286 1-362): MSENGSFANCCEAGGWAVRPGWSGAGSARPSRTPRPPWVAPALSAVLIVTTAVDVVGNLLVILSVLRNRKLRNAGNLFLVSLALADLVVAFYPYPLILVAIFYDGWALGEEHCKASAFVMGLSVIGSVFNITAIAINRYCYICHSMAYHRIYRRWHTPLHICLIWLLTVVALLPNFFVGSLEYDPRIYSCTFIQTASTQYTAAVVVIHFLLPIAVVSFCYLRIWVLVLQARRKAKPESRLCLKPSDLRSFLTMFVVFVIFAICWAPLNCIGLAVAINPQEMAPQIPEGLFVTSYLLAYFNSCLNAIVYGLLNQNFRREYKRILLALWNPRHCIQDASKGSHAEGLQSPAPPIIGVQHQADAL
Procedure: (§1) The Radioligand binding assays were conducted by the NIMH Psychoactive Drug Screening Program (PDSP). The NIMH PDSP is directed by Bryan L. Roth, MD, PhD, at the University of North Carolina at Chapel Hill, North Carolina, and Program Officer Jamie Driscoll at NIMH, Bethesda, MD. Binding assay procedures and protocols are also available online at http://pdspdb.unc.edu/pdspWeb/?site=assays. […] Assay plates were sealed and incubated for 4 hr at 37°C in a humidified incubator until harvesting. Plates were harvested using vacuum filtration onto 0.3% polyethyleneimine pre-soaked 96-well Filtermat A (PerkinElmer) and washed three times with cold wash buffer (50 mM Tris, pH 7.4). Filters were dried and melted with a scintillation cocktail (Meltilex, PerkinElmer). Radioactivity was counted using a Wallac TriLux Microbeta counter (PerkinElmer). Results were analyzed using GraphPad Prism 7.0.

MT2 [2] = molecular target: T1, MT2; assay: GloSensor Gi/o-mediated cAMP production inhibition assay, MT2; type: cell-based; parameters: expressed in transfected cells; host or cells: HEK293T (ATCC CRL-11268), transient transfection; conditions: for MT2/MT1 Selectivity: Antilog (log(Emax/EC50) MT2 - log (Emax/EC50) MT1), values below 1 = MT1 selectivity; for EC50: Gi/o mediated, read-out: MT2 EC50; for Emax: MT2, activation compared to melatonin, read-out: MT2 Emax ± SEM; for MT2 LE: ligand efficiency (based on EC50)
Procedure: (§2) Briefly, HEK293 T cells (as above) were transiently co-transfected with receptor (MT1 or MT2) and GloSensor cAMP (Promega) plasmids overnight, plated in Poly-L-Lysine coated 384-well white clear bottom plates in DMEM + 1% dialyzed FBS. Cells were used for assays at a minimum of 6 hr after plating. Culture medium was first removed and cells were stimulated with drugs in assay buffer (1x HBSS, 20 mM HEPES, 1 mg/ml BSA, 0.1 mg/ml ascorbic acid, pH 7.4) for 15 min at room temperature (this and all the following steps), followed by addition of a mixture of isoproterenol (final of 100 nM) and luciferin (final of 1 mM) for Gi/o-cAMP production inhibition assays and luciferin (final of 1 mM) for Gs-cAMP production assays. The plates were counted for luminescence after 25 min in a luminescence plate reader. Results were analyzed using GraphPad Prism 7.0.

MT1 [3] = molecular target: T2, MT1 (Homo sapiens, UniProt P48039); assay: [3H]melatonin competition radioligand binding, MT1 membranes; conditions: read-out: MT1 pKi ± SEM (converted)
T2 construct: expressed in transfected cells; host or cells: HEK293T (ATCC CRL-11268), transient transfection
T2 sequence (P48039 whole entry): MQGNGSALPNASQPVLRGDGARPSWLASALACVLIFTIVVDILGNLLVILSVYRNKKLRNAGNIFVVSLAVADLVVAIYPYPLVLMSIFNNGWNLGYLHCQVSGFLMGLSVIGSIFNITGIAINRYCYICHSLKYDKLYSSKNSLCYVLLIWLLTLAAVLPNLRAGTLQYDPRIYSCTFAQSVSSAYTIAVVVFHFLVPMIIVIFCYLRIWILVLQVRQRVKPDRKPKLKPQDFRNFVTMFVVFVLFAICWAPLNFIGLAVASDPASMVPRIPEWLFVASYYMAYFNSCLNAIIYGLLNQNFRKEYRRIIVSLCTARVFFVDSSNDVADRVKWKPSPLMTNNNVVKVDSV
Procedure: as §1

MT1 [4] = molecular target: T2, MT1; assay: GloSensor Gi/o-mediated cAMP production inhibition assay, MT1; type: cell-based; conditions: for EC50: Gi/o mediated; for MT1 LE: ligand efficiency (based on EC50); for Emax: read-out: MT1 Emax ± SEM
Procedure: as §2

[5] = molecular target: T3, MT1 N162Q mutant receptor (Homo sapiens, UniProt P48039, N162Q); assay: Tango β-arrestin recruitment assay, MT1 N162Q mutant; type: cell-based
T3 construct: expressed in transfected cells; host or cells: HTLA cells (HEKT based)
T3 sequence (P48039 whole entry N162Q): as the sequence (P48039 whole entry) above, with N162Q counted along it
Procedure: (§3) In brief, HTLA cells were transiently transfected with receptor TANGO DNA constructs overnight in DMEM with 10% FBS. Transfected cells were then plated into poly-L-Lys coated 384-well plates using DMEM supplemented with 1% dialyzed FBS. After 6 hr incubation, drug dilutions, prepared in DMEM with 1% dFBS, were added for incubation overnight (16–20 hr). Medium and drug solutions were removed, Bright-Glo reagent (20 uL/well) was added for luminescence counting 20 min later. Results were analyzed in GraphPad Prism 7.0.

[6] = test system: panel of 47 common drug targets (GPCRs, ion-channels and transporters); assay: Binding profiling at a panel of 47 common drug targets; conditions: final concentration of 10 μM
Procedure: as §1, with “http://pdspdb.unc.edu/pdspWeb/?site=assays. All the radioligand binding assays were performed using membranes prepared from transiently transfected HEK293T cells (purchased from ATCC, CRL-11268, authenticated by the supplier using morphology, growth characteristics, and STR profiling and certified mycoplasma-free) and in standard binding buffer (50 mM Tris, 10 mM MgCl2, 0.1 mM EDTA, 0.1% BSA, 0.01% ascorbic acid, pH 7.4) as recently reported ([Stauch et al., 2019]).” for “http://pdspdb.unc.edu/pdspWeb/?site=assays.”

[7] = molecular target: T4, MT1 Y281F mutant receptor (Homo sapiens, UniProt P48039, Y281F); assay: Tango β-arrestin recruitment assay, MT1 Y281F mutant; type: cell-based; conditions: normalized individually (basal 0%, maximum 100%); mean ± SEM, minimum of 3 assays; read-out: pEC50, Tango, MT1 Y281F (converted)
T4 construct: expressed in transfected cells; host or cells: HTLA cells (HEKT based)
T4 sequence (P48039 whole entry Y281F): as the sequence (P48039 whole entry) above, with Y281F counted along it
Procedure: as §3

MT1 wildtype (WT) = molecular target: T5, MT1 wildtype (WT) (Homo sapiens, UniProt P48039); assay: Tango β-arrestin recruitment assay, MT1 wildtype; type: cell-based
T5 construct: host or cells: HTLA cells (HEKT based)
T5 sequence (P48039 whole entry): as the sequence (P48039 whole entry) above
Procedure: as §3

[8] = SEM, N = 3, read-out: MT1 pEC50 ± SEM (converted)

Row | Ki (MT2 [1]) | MT2/MT1 Selectivity (MT2 [2]) | EC50 (MT2 [2]) | Emax (MT2 [2]) | MT2 LE (MT2 [2]) | Ki (MT1 [3]) | EC50 (MT1 [4]; [8]) | EC50 (MT1 [4]; read-out: MT1 EC50) | MT1 LE (MT1 [4]) | Emax (MT1 [4]) | increase of potency, MT1 N162Q versus WT ([5]; Tango) | EC50 ([5]; normalized individually (basal 0%, maximum 100%), mean ± SEM, minimum of 3 assays, read-out: pEC50, Tango, MT1 N162Q (converted)) | binding at panel of 47 common drug targets [6] | EC50 [7] | EC50 (MT1 wildtype (WT); normalized individually (basal 0%, maximum 100%), mean ± SEM, minimum of 3 assays, read-out: pEC50, Tango, MT1 WT (converted)) | β-arrestin activity at MT1 (MT1 wildtype (WT); result in words) | EC50 (MT1 [4]; text value, read-out: MT1 EC50) | Compound | G-protein (Gi) signaling at MT1 (MT1 [4]; result in words)
1 | 2.75 µM | 2.7 fold | 0.0204 µM | 91.7 ± 3% | 0.60 kcal/mol per non-hydrogen atom | 3.8 µM | 0.0692 µM | 0.0575 µM | 0.56 kcal/mol per non-hydrogen atom | 96.9 ± 5.3% | – | – | – | – | – | – | – | COc1cccc([C@@H]2C[C@H]2CNC(=O)C(N)=O)c1 (racemic) [Compound 23, rac-N'-{[(1R,2R)-2-(3-methoxyphenyl)cyclopropyl]methyl}ethanediamide] | –
2 | 2.45 µM | 3.3 fold | 0.0347 µM | < 70% | 0.58 kcal/mol per non-hydrogen atom | 6.03 µM | 0.148 µM | 0.144 µM | 0.53 kcal/mol per non-hydrogen atom | 87.5 ± 4.5% | – | – | – | – | – | – | – | CC(=O)NCC1CCCCN1c1ccnc(C)n1 (stereo not drawn) [Compound 29, N-{[1-(2-methylpyrimidin-4-yl)piperidin-2-yl]methyl}acetamide] | –
3 | 3.55 µM | >1000.0 fold | 0.141 µM | 61.1 ± 9.1% | 0.53 kcal/mol per non-hydrogen atom | 8.51 µM | – | > 30 µM | – | – | 2 fold | 2.24 µM | did not show any substantial binding | 11.7 µM | 4.17 µM | substantial β-arrestin activity | – | COc1cccc(CNc2nc(C3CC3)no2)c1 [Compound 37, 3-cyclopropyl-N-[(3-methoxyphenyl)methyl]-1,2,4-oxadiazol-5-amine] | devoid of Gi signaling; also recorded: completely lacks G-protein signaling
4 | 11.2 µM | 267 fold and 267.2 fold | 0.263 µM | 88.9 ± 6.3% | 0.51 kcal/mol per non-hydrogen atom | 64.6 µM | – | 57.5 µM | 0.33 kcal/mol per non-hydrogen atom | 72.8 ± 4.7% | – | – | – | – | – | – | – | COc1cccc(Cn2c(N)cc(=O)[nH]c2=O)c1 [Compound 44, 6-amino-1-[(3-methoxyphenyl)methyl]-1,2,3,4-tetrahydropyrimidine-2,4-dione] | –
5 | 5.5 µM | 17 fold and 16.9 fold | 0.427 µM | 75 ± 7.4% | 0.56 kcal/mol per non-hydrogen atom | 28.8 µM | – | 8.71 µM | 0.44 kcal/mol per non-hydrogen atom | 90.6 ± 14.3% | – | – | – | – | – | – | – | CC(=O)c1sc2nc3c(cc2c1N)CCC3 [Compound 45] | –
6 | 1.23 µM | 187 fold and 186.9 fold | 0.01 µM and 0.0102 µM | 91.7 ± 3% | 0.66 kcal/mol per non-hydrogen atom | 26.3 µM | – | 2.34 µM | 0.46 kcal/mol per non-hydrogen atom | 112 ± 5.2% | – | – | – | – | – | – | 2.34 µM | NC(=O)c1cc(C(=O)c2ccccc2Cl)c[nH]1 [Compound 47] | –
7 | 2.75 µM | 36.9 fold | 0.0182 µM | 75 ± 3.7% | 0.68 kcal/mol per non-hydrogen atom | 9.33 µM | 0.871 µM | 0.741 µM | 0.54 kcal/mol per non-hydrogen atom | 82.8 ± 4.3% | – | – | – | – | – | – | – | COC(=O)c1[nH]c2cc(OC)ccc2c1N [Compound 54] | –
8 | 4.27 µM | 10.3 fold | 0.132 µM | < 70% | 0.57 kcal/mol per non-hydrogen atom | 14.5 µM | 1.91 µM | 1.78 µM | 0.47 kcal/mol per non-hydrogen atom | 87.5 ± 9.1% | – | – | – | – | – | – | – | COc1cccc(CNC(=O)c2ccno2)c1 [Compound 57, N-[(3-methoxyphenyl)methyl]-1,2-oxazole-5-carboxamide] | –
9 | 3.24 µM | 875.9 fold | 0.0525 µM | < 70% | 0.60 kcal/mol per non-hydrogen atom | 47.9 µM | 40.7 µM | 42.7 µM | 0.36 kcal/mol per non-hydrogen atom | 54.1 ± 10% | – | – | – | – | – | – | – | Nc1cc(=O)[nH]c(=S)n1CCc1ccccc1 [Compound 62] | –
10 | – | – | – | – | – | – | – | – | – | 100 ± 5.6% | – | – | – | – | – | – | – | COc1ccc2[nH]cc(CCNC(C)=O)c2c1 [Melatonin, N-acetyl-5-methoxytryptamine, reference compound] | –
